Data from US4370474A, “11-Deoxy-carminomycin compounds” (Farmitalia Carlo Erba S.p.A., priority 1978, dated 1983).
Structures can show the parent of a compound that is named as a salt. Where two headings read alike, the source gives them in different places.

What was measured:
[1] = system: P 388 leukemia; experiment: Antitumor activity on P 388 leukemia in mice; type: in vivo; conditions: for P-388 Toxic deaths: evaluated on macroscopic findings
Procedure: (§1) The new antibiotics W, Y and Z have been tested against HeLa cells in vitro (time of exposure to the drugs: 24 hours), and on L 1210 and P 388 leukemia in mice in comparison with daunorubicin.
(§2) (b) Mice were treated i.p. on day 1 after tumor cell inoculation.
(§3) (c) Evaluated on the basis of macroscopic findings.

[2] = system: HeLa cells; experiment: Effect on HeLa cells viability in vitro; type: cell-based; conditions: Homo sapiens, read-out: Effect of HeLa cells viability in vitro ID50
Procedure: as §1
(a) HeLa cells were exposed to the drugs for 24 hrs, then plated.

[3] = system: L 1210 leukemia; experiment: Antitumor activity on L 1210 leukemia in mice; type: in vivo; conditions: for L-1210 Toxic deaths: evaluated on macroscopic findings
Procedure: as §1, §2, §3

[4] = Solubility; type: physicochemical; conditions: aglycone from acid hydrolysis
[5] = 1.0 mg/kg i.p. on day 1 after tumor cell inoculation
[6] = HeLa cells exposed to the drugs for 24 hrs, then plated
[7] = 1.2 mg/kg i.p. on day 1 after tumor cell inoculation
[8] = 1.9 mg/kg i.p. on day 1 after tumor cell inoculation
[9] = 2.9 mg/kg i.p. on day 1 after tumor cell inoculation
[10] = 4.4 mg/kg i.p. on day 1 after tumor cell inoculation
[11] = 6.6 mg/kg i.p. on day 1 after tumor cell inoculation

For `C[C@@H]1O[C@@H](O[C@H]2C[C@](O)(C(=O)CO)Cc3cc4c(c(O)c32)C(=O)c2c(O)cccc2C4=O)C[C@H](N)[C@@H]1O` [Antibiotic W.HCl], the “P-388 Toxic deaths” value ([1]; 1.0 mg/kg i.p. on day 1) was 0/10, the “P-388 T/C” value [1, 5] was 159% and the “P-388 Toxic deaths” value ([1]; 1.5 mg/kg i.p. on day 1) was 0/20. For the same molecule, the “P-388 T/C” value ([1]; 1.5 mg/kg i.p. on day 1 after tumor cell inoculation) was 172%, the “P-388 Toxic deaths” value ([1]; 2.25 mg/kg i.p. on day 1) was 0/20 and the “P-388 T/C” value ([1]; 2.25 mg/kg i.p. on day 1 after tumor cell inoculation) was 163%. The “P-388 Toxic deaths” value ([1]; 3.4 mg/kg i.p. on day 1) was 0/10, the “P-388 T/C” value ([1]; 3.4 mg/kg i.p. on day 1 after tumor cell inoculation) was 190% and the “P-388 Toxic deaths” value ([1]; 5.0 mg/kg i.p. on day 1) was 1/9. For the same molecule, the “P-388 T/C” value ([1]; 5.0 mg/kg i.p. on day 1 after tumor cell inoculation) was 204% and the IC50 [2, 6] was 8.8 ng/mL.

With `CC(=O)[C@]1(O)Cc2cc3c(c(O)c2[C@@H](O[C@H]2C[C@H](N)[C@H](O)[C@H](C)O2)C1)C(=O)c1c(O)cccc1C3=O` [Antibiotic Y.HCl] the “L-1210 T/C” value ([3]; 0.8 mg/kg i.p. on day 1 after tumor cell inoculation) was 111%, the “L-1210 T/C” value [3, 7] was 128% and the “L-1210 T/C” value [3, 8] was 122%. The “L-1210 Toxic deaths” value ([3]; 2.9 mg/kg i.p. on day 1) was 8/10, the “L-1210 T/C” value [3, 9] was 111% and the “P-388 T/C” value [1, 7] was 145%. The “P-388 T/C” value [1, 8] was 159% and the IC50 [2, 6] was 9.6 ng/mL.

With `CC[C@]1(O)Cc2cc3c(c(O)c2[C@@H](O[C@H]2C[C@H](N)[C@H](O)[C@H](C)O2)C1)C(=O)c1c(O)cccc1C3=O` [Antibiotic Z.HCl] the “L-1210 T/C” value [3, 9] was 125%, the “L-1210 Toxic deaths” value ([3]; 4.4 mg/kg i.p. on day 1) was 2/10 and the “L-1210 T/C” value [3, 10] was 131%. The “L-1210 Toxic deaths” value ([3]; 6.6 mg/kg i.p. on day 1) was 5/10, the “L-1210 T/C” value [3, 11] was 137% and the “P-388 T/C” value [1, 5] was 140%. For the same molecule, the “P-388 T/C” value ([1]; 2.0 mg/kg i.p. on day 1 after tumor cell inoculation) was 140%, the “P-388 Toxic deaths” value ([1]; 4.4 mg/kg i.p. on day 1) was 7/8 and the “P-388 T/C” value [1, 10] was 100%. The IC50 [2, 6] was 15 ng/mL.

With `COc1cccc2c1C(=O)c1c(O)c3c(c(O)c1C2=O)C[C@@](O)(C(C)=O)C[C@@H]3O[C@H]1C[C@H](N)[C@H](O)[C@H](C)O1` [Daunorubicin.HCl, daunorubicin, reference compound] the “L-1210 T/C” value [3, 9] was 144-150%, the “L-1210 Toxic deaths” value ([3]; 4.4 mg/kg i.p. on day 1) was 1/20 and the “L-1210 T/C” value [3, 10] was 140-162%. The “L-1210 Toxic deaths” value ([3]; 6.6 mg/kg i.p. on day 1) was 3/19, the “L-1210 T/C” value [3, 11] was 144-162% and the “P-388 Toxic deaths” value ([1]; 2.9 mg/kg i.p. on day 1) was 2/8. The “P-388 T/C” value [1, 9] was 170%, the “P-388 Toxic deaths” value ([1]; 4.4 mg/kg i.p. on day 1) was 6/8 and the “P-388 T/C” value [1, 10] was 175%. For the same molecule, the “P-388 Toxic deaths” value ([1]; 6.6 mg/kg i.p. on day 1) was 7/8, the “P-388 T/C” value [1, 11] was 160% and the IC50 ([2]; HeLa, 24 h) was 7.5 ng/mL.

With `CC(=O)[C@]1(O)Cc2cc3c(c(O)c2[C@@H](O)C1)C(=O)c1c(O)cccc1C3=O` [aglycone of the antibiotic Y] the solubility in water [4] was “water insoluble”.
